We go through 1 molecule from patent publication US20120082677A1, “COMPOSITIONS FOR THE TREATMENT OF HCV AND HBV” (priority 2010, published 2012).

Series [1] in a line: Experiment 7 (second): injection in white mice for about 15 days. The series is classed as in vivo. The note with it: 5 per group, injected for about 15 days. The source says:
Experimental animals: We classified 20 white mice in 4 groups every group has 5 mice.

For series [2] the following is noted: cited from earlier work.

Consider `NC[C@H]1CC[C@H](C(=O)O)CC1` [tranexamic acid], for which the “survival of the mice” value in series [1] is on record as “still alive”. Further, the “time of peak plasma concentration” value in series [2] (absorption via the GIT) is 2 h. For the same molecule, the excretion result in series [2] (chemical part) is given as “excreted in the urine mainly as unchanged drug”. For the same molecule, the protein binding entry in series [2] (in vivo) is recorded as “very low”. Also, in series [2] (via the GIT), the absorption result is given as “easily absorbed via the GIT”.
